SMILES strings stand for the structures.

The target of the assay is T1, human GluN1/GluN2B NMDA receptors (Homo sapiens, UniProt Q13224).
T1 construct: expressed in transfected cells
T1 sequence (Q13224 27-1484, other chains not shown): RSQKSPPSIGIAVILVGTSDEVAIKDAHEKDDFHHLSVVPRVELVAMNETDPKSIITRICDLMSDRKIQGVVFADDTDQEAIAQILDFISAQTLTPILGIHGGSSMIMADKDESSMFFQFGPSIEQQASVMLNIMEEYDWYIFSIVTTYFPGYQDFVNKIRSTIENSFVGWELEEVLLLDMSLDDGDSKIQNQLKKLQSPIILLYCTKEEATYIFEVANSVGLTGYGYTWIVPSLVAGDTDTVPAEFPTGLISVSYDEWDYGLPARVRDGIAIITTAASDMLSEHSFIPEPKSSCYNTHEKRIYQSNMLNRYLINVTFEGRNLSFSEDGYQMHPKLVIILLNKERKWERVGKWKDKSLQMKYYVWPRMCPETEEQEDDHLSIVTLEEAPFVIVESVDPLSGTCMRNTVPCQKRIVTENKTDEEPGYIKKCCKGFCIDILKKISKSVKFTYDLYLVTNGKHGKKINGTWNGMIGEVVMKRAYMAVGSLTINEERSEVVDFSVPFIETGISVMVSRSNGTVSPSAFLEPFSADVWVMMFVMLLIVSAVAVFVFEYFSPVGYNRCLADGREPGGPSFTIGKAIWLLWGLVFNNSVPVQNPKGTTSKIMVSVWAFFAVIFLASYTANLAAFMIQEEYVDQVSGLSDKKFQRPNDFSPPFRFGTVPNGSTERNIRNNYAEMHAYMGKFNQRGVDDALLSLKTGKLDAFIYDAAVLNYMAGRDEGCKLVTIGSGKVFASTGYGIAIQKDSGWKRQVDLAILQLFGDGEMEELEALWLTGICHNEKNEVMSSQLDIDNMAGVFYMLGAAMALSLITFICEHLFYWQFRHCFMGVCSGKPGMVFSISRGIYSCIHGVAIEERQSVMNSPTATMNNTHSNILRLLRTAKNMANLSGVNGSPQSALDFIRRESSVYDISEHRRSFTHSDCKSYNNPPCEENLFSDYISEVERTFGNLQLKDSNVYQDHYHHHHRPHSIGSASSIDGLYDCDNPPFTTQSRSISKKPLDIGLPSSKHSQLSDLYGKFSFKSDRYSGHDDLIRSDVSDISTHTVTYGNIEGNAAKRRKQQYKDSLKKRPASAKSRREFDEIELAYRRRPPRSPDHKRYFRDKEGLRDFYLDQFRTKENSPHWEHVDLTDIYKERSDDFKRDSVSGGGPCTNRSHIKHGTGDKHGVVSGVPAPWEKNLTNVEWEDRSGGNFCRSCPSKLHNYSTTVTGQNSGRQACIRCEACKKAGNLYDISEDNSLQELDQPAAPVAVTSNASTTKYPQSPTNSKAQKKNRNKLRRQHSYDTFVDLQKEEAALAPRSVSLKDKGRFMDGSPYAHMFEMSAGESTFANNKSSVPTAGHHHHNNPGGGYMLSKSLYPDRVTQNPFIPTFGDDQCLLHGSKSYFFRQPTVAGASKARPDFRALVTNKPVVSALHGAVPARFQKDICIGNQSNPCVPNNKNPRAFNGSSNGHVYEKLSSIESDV
As to the kind of experiment: Cell-based calcium flux (FLIPR) assay on cloned human NR1/NR2B ion channels expressed in mammalian cells (standard and HTS buffer variants).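 Also: stable Tet-On inducible cell line, Ca2+ influx triggered by glutamate at about EC40 plus 10 µM glycine, fluorescent dye read-out over 5 min, normalized to control wells.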 The conditions noted are these: standard assay buffer (0.5 mM MgCl2 dye loading; 137 mM NaCl, 4 mM KCl assay buffer), human GluN1/GluN2B cells, read-out: NR2B IC50 (μM) standard assay. In general terms: A change in cytosolic calcium serves as a functional read-out for many receptors and channels.
The term IC50 denotes the point on the concentration scale where inhibition reaches its midpoint. For `N#Cc1ccccc1Cn1c(=O)[nH]c2ncc(-c3cccc(C(F)(F)F)c3)cc21` [Example 213, 2-[[2-Oxo-6-[3-(trifluoromethyl)phenyl]-3H-imidazo[4,5-b]pyridin-1-yl]methyl]benzonitrile], the IC50 is 0.375 µM.
For `O=C(Cn1c(=O)[nH]c2ncc(-c3cccc(C(F)(F)F)c3)cc21)c1cccs1` [Example 214, 1-[2-Oxo-2-(2-thienyl)ethyl]-6-[3-(trifluoromethyl)phenyl]-3H-imidazo[4,5-b]pyridin-2-one] the value was above 10 µM; for `O=C(Cn1c(=O)[nH]c2ncc(-c3cccc(C(F)(F)F)c3)cc21)c1nccs1` [Example 215, 1-(2-Oxo-2-thiazol-2-yl-ethyl)-6-[3-(trifluoromethyl)phenyl]-3H-imidazo[4,5-b]pyridin-2-one], 0.365 µM.
On to `O=c1[nH]c2ncc(-c3cccc(C(F)(F)F)c3)cc2n1Cc1ccc(C(F)(F)F)cc1` [Example 219, 6-[3-(Trifluoromethyl)phenyl]-1-[[4-(trifluoromethyl)phenyl]methyl]-3H-imidazo[4,5-b]pyridin-2-one], for which the IC50 is above 10 µM.
For `COc1ccc(Cn2c(=O)[nH]c3ncc(-c4cccc(C(F)(F)F)c4)cc32)cc1F` [Example 220, 1-[(3-Fluoro-4-methoxy-phenyl)methyl]-6-[3-(trifluoromethyl)phenyl]-3H-imidazo[4,5-b]pyridin-2-one] the value was 1.65 µM; for `Cc1cc(Cn2c(=O)[nH]c3ncc(-c4cccc(C(F)(F)F)c4)cc32)ccc1F` [Example 221, 1-[(4-Fluoro-3-methyl-phenyl)methyl]-6-[3-(trifluoromethyl)phenyl]-3H-imidazo[4,5-b]pyridin-2-one], 8.71 µM; for `O=c1[nH]c2ncc(-c3cccc(C(F)(F)F)c3)cc2n1Cc1cccc(F)c1` [Example 222, 1-[(3-Fluorophenyl)methyl]-6-[3-(trifluoromethyl)phenyl]-3H-imidazo[4,5-b]pyridin-2-one], 0.479 µM.
In the case of `O=c1[nH]c2ncc(-c3cccc(C(F)(F)F)c3)cc2n1CC1(F)COC1` [Example 226, 1-[(3-Fluorooxetan-3-yl)methyl]-6-[3-(trifluoromethyl)phenyl]-3H-imidazo[4,5-b]pyridin-2-one], the IC50 was 0.8 µM.
For `O=c1[nH]c2ncc(-c3cccc(C(F)(F)F)c3)cc2n1Cc1ncccn1` [Example 227, 1-(Pyrimidin-2-ylmethyl)-6-[3-(trifluoromethyl)phenyl]-3H-imidazo[4,5-b]pyridin-2-one] the value was 0.096 µM; for `O=c1[nH]c2ncc(-c3cccc(C(F)(F)F)c3)cc2n1Cc1ccccn1` [Example 228, 1-(2-Pyridylmethyl)-6-[3-(trifluoromethyl)phenyl]-3H-imidazo[4,5-b]pyridin-2-one], 0.083 µM; for `O=c1[nH]c2ncc(-c3cccc(C(F)(F)F)c3)cc2n1Cc1ccncc1` [Example 229, 1-(4-Pyridylmethyl)-6-[3-(trifluoromethyl)phenyl]-3H-imidazo[4,5-b]pyridin-2-one], 0.194 µM.
The result for `O=c1[nH]c2ncc(-c3cccc(C(F)(F)F)c3)cc2n1Cc1cccnc1` [Example 230, 1-(3-Pyridylmethyl)-6-[3-(trifluoromethyl)phenyl]-3H-imidazo[4,5-b]pyridin-2-one] reads 0.017 µM.
On to `Cc1ncc(Cn2c(=O)[nH]c3ncc(-c4cccc(C(F)(F)F)c4)cc32)cn1` [Example 231, 1-[(2-Methylpyrimidin-5-yl)methyl]-6-[3-(trifluoromethyl)phenyl]-3H-imidazo[4,5-b]pyridin-2-one], for which the IC50 was 0.094 µM.
Take `O=c1[nH]c2ncc(-c3cccc(C(F)(F)F)c3)cc2n1Cc1cccnn1` [Example 232, 1-(Pyridazin-3-ylmethyl)-6-[3-(trifluoromethyl)phenyl]-3H-imidazo[4,5-b]pyridin-2-one]: the IC50 was found to be 0.017 µM.
For `COc1cccnc1Cn1c(=O)[nH]c2ncc(-c3cccc(C(F)(F)F)c3)cc21` [Example 233, 1-[(3-Methoxy-2-pyridyl)methyl]-6-[3-(trifluoromethyl)phenyl]-3H-imidazo[4,5-b]pyridin-2-one] the value was 2.83 µM.
Turning to `Cc1cnc(Cn2c(=O)[nH]c3ncc(-c4cccc(C(F)(F)F)c4)cc32)c(F)c1` [Example 234, 1-[(3-Fluoro-5-methyl-2-pyridyl)methyl]-6-[3-(trifluoromethyl)phenyl]-3H-imidazo[4,5-b]pyridin-2-one], the IC50 was 1.98 µM.
The result for `Cc1ccc(Cn2c(=O)[nH]c3ncc(-c4cccc(C(F)(F)F)c4)cc32)cn1` [Example 235, 1-[(6-Methyl-3-pyridyl)methyl]-6-[3-(trifluoromethyl)phenyl]-3H-imidazo[4,5-b]pyridin-2-one] reads 0.256 µM.
Take `O=c1[nH]c2ncc(-c3cccc(C(F)(F)F)c3)cc2n1Cc1nn[nH]n1` [Example 236, 1-(2H-Tetrazol-5-ylmethyl)-6-[3-(trifluoromethyl)phenyl]-3H-imidazo[4,5-b]pyridin-2-one]: the IC50 was above 5 µM.
For `O=c1[nH]c2ncc(-c3cccc(C(F)(F)F)c3)cc2n1C(F)(F)c1cccnc1` [Example 237, 1-[Difluoro(3-pyridyl)methyl]-6-[3-(trifluoromethyl)phenyl]-3H-imidazo[4,5-b]pyridin-2-one] the value was above 10 µM; for `O=c1[nH]c2ncc(-c3cccc(C(F)(F)F)c3)cc2n1Cc1ccc(F)nc1` [Example 238, 1-[(6-Fluoro-3-pyridyl)methyl]-6-[3-(trifluoromethyl)phenyl]-3H-imidazo[4,5-1D]pyridin-2-one], 0.088 µM.
The result for `O=C(Cn1c(=O)[nH]c2ncc(-c3cccc(C(F)(F)F)c3)cc21)C1CC1` [Example 239, 1-(2-Cyclopropyl-2-oxo-ethyl)-6-[3-(trifluoromethyl)phenyl]-3H-imidazo[4,5-b]pyridin-2-one] reads 0.034 µM; that for `CCC(=O)Cn1c(=O)[nH]c2ncc(-c3cccc(C(F)(F)F)c3)cc21` [Example 240, 1-(2-Oxobutyl)-6-[3-(trifluoromethyl)phenyl]-3H-imidazo[4,5-b]pyridin-2-one], 0.022 µM; that for `CC(C)C(=O)Cn1c(=O)[nH]c2ncc(-c3cccc(C(F)(F)F)c3)cc21` [Example 241, 1-(3-Methyl-2-oxo-butyl)-6-[3-(trifluoromethyl)phenyl]-3H-imidazo[4,5-b]pyridin-2-one], 0.093 µM.
In the case of `Cc1cncc(Cn2c(=O)[nH]c3ncc(-c4cccc(C(F)(F)F)c4)cc32)c1` [Example 242, 1-[(5-Methyl-3-pyridyl)methyl]-6-[3-(trifluoromethyl)phenyl]-3H-imidazo[4,5-b]pyridin-2-one], the IC50 stood at 0.15 µM.
For the compound `O=c1[nH]c2ncc(-c3cccc(C(F)(F)F)c3)cc2n1Cc1csnn1` [Example 243, 1-(Thiadiazol-4-ylmethyl)-6-[3-(trifluoromethyl)phenyl]-3H-imidazo[4,5-b]pyridin-2-one], the IC50 turned out to be 0.065 µM.
The result for `O=c1ccc(Cn2c(=O)[nH]c3ncc(-c4cccc(C(F)(F)F)c4)cc32)c[nH]1` [Example 244, 1-[(6-Oxo-1H-pyridin-3-yl)methyl]-6-[3-(trifluoromethyl)phenyl]-3H-imidazo[4,5-b]pyridin-2-one] reads 1.89 µM; that for `Cn1c(=O)n(Cc2ccncn2)c2cc(-c3cccc(C(F)(F)F)c3)cnc21` [Example 246, 3-Methyl-1-(pyrimidin-4-ylmethyl)-6-[3-(trifluoromethyl)phenyl]imidazo[4,5-b]pyridin-2-one], 0.349 µM.
For `Cn1c(=O)n(Cc2cncnc2)c2cc(-c3cccc(C(F)(F)F)c3)cnc21` [Example 247, 3-Methyl-1-(pyrimidin-5-ylmethyl)-6-[3-(trifluoromethyl)phenyl]imidazo[4,5-b]pyridin-2-one] the value was 0.133 µM.
The result for `Cc1nccc(Cn2c(=O)n(C)c3ncc(-c4cccc(C(F)(F)F)c4)cc32)n1` [Example 248, 3-Methyl-1-[(2-methylpyrimidin-4-yl)methyl]-6-[3-(trifluoromethyl)phenyl]imidazo[4,5-b]pyridin-2-one] reads 2.05 µM; that for `Cn1c(=O)n(Cc2cnccn2)c2cc(-c3cccc(C(F)(F)F)c3)cnc21` [Example 249, 3-Methyl-1-(pyrazin-2-ylmethyl)-6-[3-(trifluoromethyl)phenyl]imidazo[4,5-b]pyridin-2-one], 0.253 µM; that for `Cn1c(=O)n(Cc2ccncc2)c2cc(-c3cccc(C(F)(F)F)c3)cnc21` [Example 250, 3-Methyl-1-(4-pyridylmethyl)-6-[3-(trifluoromethyl)phenyl]imidazo[4,5-b]pyridin-2-one], 2 µM.
For `Cn1c(=O)n(Cc2ccccn2)c2cc(-c3cccc(C(F)(F)F)c3)cnc21` [Example 251, 3-Methyl-1-(2-pyridylmethyl)-6-[3-(trifluoromethyl)phenyl]imidazo[4,5-b]pyridin-2-one], the 50% inhibitory concentration (IC50) is 0.8 µM.
The result for `COc1ccc(Cn2c(=O)[nH]c3ncc(-c4cccc(C(F)(F)F)c4)cc32)nn1` [Example 252, 1-[(6-Methoxypyridazin-3-yl)methyl]-6-[3-(trifluoromethyl)phenyl]-3H-imidazo[4,5-b]pyridin-2-one] reads above 10 µM; that for `O=c1[nH]c2ncc(-c3cccc(C(F)(F)F)c3)cc2n1Cc1cnccn1` [Example 253, 1-(Pyrazin-2-ylmethyl)-6-[3-(trifluoromethyl)phenyl]-3H-imidazo[4,5-b]pyridin-2-one], 0.066 µM.
In the case of `Cc1nccc(Cn2c(=O)[nH]c3ncc(-c4cccc(C(F)(F)F)c4)cc32)n1` [Example 254, 1-[(2-Methylpyrimidin-4-yl)methyl]-6-[3-(trifluoromethyl)phenyl]-3H-imidazo[4,5-b]pyridin-2-one], the IC50 amounted to 0.824 µM.
For `O=c1[nH]c2ncc(-c3cccc(C(F)(F)F)c3)cc2n1Cc1cncnc1` [Example 255, 1-(Pyrimidin-5-ylmethyl)-6-[3-(trifluoromethyl)phenyl]-3H-imidazo[4,5-b]pyridin-2-one] the value was 0.043 µM.
Consider `O=c1[nH]c2ncc(-c3cccc(C(F)(F)F)c3)cc2n1Cc1ncc(F)cn1` [Example 256, 1-[(5-Fluoropyrimidin-2-yl)methyl]-6-[3-(trifluoromethyl)phenyl]-3H-imidazo[4,5-b]pyridin-2-one], for which the IC50 came to 0.134 µM.
